From publication PMC9585939, “Unveiling a family of spiro-β-lactams with anti-HIV and antiplasmodial activity via phosphine-catalyzed [3+2] annulation of 6-alkylidene-penicillanates and allenoates” (Frontiers in Chemistry, 2022)
“And” between values parts separate entries of the source, which are not always exact repeats. Identical values can stand only once. Like-named read-outs stand apart in the source and are kept apart here.

Key:
HIV-1 SG3.1 [1] = conditions: ref Bártolo et al., 2021, cited from earlier work; for IC50: Alves et al., 2021c
HIV-2 03PTHCC19 [2] = test system: HIV-2 03PTHCC19; parameters: method as in Bártolo et al., 2021; conditions: ref Bártolo et al., 2021, cited from earlier work
P. berghei hepatic stage [3] = test system: P. berghei hepatic stage; parameters: method as in Bártolo et al., 2021; Alves et al., 2021c; conditions: hepatic infection; ref Bártolo et al., 2021; Alves et al., 2021c; cited from earlier work
TZM-bl cells = test system: TZM-bl cells; parameters: method as in Bártolo et al., 2021; conditions: lead molecule, ref Bártolo et al., 2021; cited from earlier work
[4] = test system: P. falciparum strain NF54; parameters: method as in Bártolo et al., 2021; Alves et al., 2021c; conditions: erythrocytic infection; ref Bártolo et al., 2021; Alves et al., 2021c; cited from earlier work
HIV protease = test system: HIV protease; parameters: method as in Bártolo et al., 2021; conditions: ref Bártolo et al., 2021; cited from earlier work
[5] = Cellular viability assay (alamarBlue) in TZM-bl cells; assay type: cell-based; conditions: human, 50% cytotoxic concentration
Protocol: Before the antiviral activity screening, all spirocyclopentene-β-lactams were assayed for their in vitro cytotoxic activity (CC50) in TZM-bl cells (Table 4).
TZM-bl cells (AIDS Research and Reference Reagent Program, National Institutes of Health, United States) were cultured in complete growth medium consisting of Dulbecco’s Minimal Essential Medium (DMEM) supplemented with 10% fetal bovine serum (FBS), 100 U/ml of penicillin–streptomycin (Gibco/Invitrogen, United States), 1 mM of sodium pyruvate (Gibco/Invitrogen, United States), 2 mM of L-glutamine (Gibco/Invitrogen, United States), and 1 mM of non-essential amino acids (Gibco/Invitrogen, United States). Cell cultures were maintained at 37°C in 5% CO2.
The in vitro cytotoxicity of test compounds was evaluated in TZM-bl cells using alamarBlue cell viability reagent (Life Technologies, United States), according to the instructions of the manufacturer. The cells were cultured in the presence and absence of serial-fold dilutions of the test compounds. Each dilution of each compound was performed in triplicate wells. Medium controls (only growth medium), cell controls (cells without test compound), and cytotoxicity controls (a compound that kills cells) were employed in each assay.

HIV-1 SG3.1 [6] = experiment: microbe, parasite or virus in culture; conditions: for IC50 / IC90: 48 h; for IC90: read-out: IC90 HIV-1; for inhibition at 25 µg/mL: read-out: MPI (%) 25 μg/mL
From the text: (§1) The HIV-1 SG3.1 is a reference subtype B strain that uses the CXCR4 coreceptor. It was obtained by transfection of HEK293T cells with pSG3.1 plasmid using jetPRIME transfection reagent (Polyplus-transfection SA, Illkirch, France), according to the instructions of the manufacturer.
(§2) Briefly, TZM-bl cells were infected with 200 TCID50 of HIV-1 or HIV-2 in the presence of serial-fold dilutions of the compounds in the growth medium, supplemented with diethylaminoethyl-dextran (DEAE-dextran). After 48 h of infection, luciferase expression was quantified with Pierce Firefly Luc One-Step Glow Assay Kit (ThermoFisher Scientific, Rockford, United States), according to the instructions of the manufacturer. For each compound dilution, the assay was set up in triplicate wells. Virus controls, cell controls, and inhibitors controls (drugs with a known action against each virus) were employed.

HIV-2 03PTHCC19 [7] = experiment: microbe, parasite or virus in culture; conditions: Human immunodeficiency virus 2, TZM-bl; for IC50 / IC90: 48 h; for IC50: read-out: IC50 HIV-2; for IC90: read-out: IC90 HIV-2; for inhibition at 25 µg/mL: read-out: MPI (%) 25 μg/mL
From the text: as §1, §2

P. berghei hepatic stage [8] = experiment: In vitro hepatic infection of Huh7 cells by luciferase-expressing P. berghei; assay type: cell-based; conditions: Plasmodium berghei; for inhibition at 1 µM: Huh-7, read-out: percentage of inhibition of hepatic infection; for IC50: Huh-7, hepatic stage, Huh7 cells, 48 h after infection
Protocol: The inhibitory activity of test compounds on in vitro hepatic infection by P. berghei was determined by comparing the parasite load in compound- and solvent-treated P. berghei-infected Huh7 cells. Infection load was assessed by measurement of luminescence intensity in Huh7 cells infected, with a firefly luciferase-expressing P. berghei line, as previously described ([Ploemen et al., 2009]; [António et al., 2017]). Briefly, Huh7 cells were seeded in 96-well plates (1.0 × 10^4 cells per well) the day before drug treatment and infection. The medium was replaced by another medium containing the appropriate concentration of each compound approximately 1 h prior to infection with sporozoites freshly obtained through disruption of salivary glands of infected female Anopheles stephensi mosquitoes. Sporozoite addition was followed by centrifugation at 1,800 g for 5 min. Parasite infection load was measured 48 h after infection by a bioluminescence assay (Biotium). Cell confluence, a surrogate measure of compound toxicity to Huh7 cells, was assessed by fluorescence measurements using the alamarBlue assay, according to the manufacturer’s instructions. […] Specifically, non-linear regression analysis was employed to fit the normalized results of the dose-response curves, and IC50 values were determined using GraphPad Prism 8.0 (GraphPad Software, La Jolla, California, United States).

[9] = test system: P. falciparum strain NF54; experiment: Blood stage antiplasmodial activity, SYBR green I flow cytometry; assay type: cell-based; conditions: Plasmodium falciparum, NF54, 48 h
Protocol: Ring-stage synchronized cultures of P. falciparum strain NF54 at 2.5% hematocrit and at approximately 1% parasitemia were incubated with test compounds or dimethyl sulfoxide (DMSO, vehicle control) in 96-well plates for 48 h at 37°C in a 5% CO2 and 5% O2 atmosphere. Stock solutions of chloroquine (positive control) and compounds 9i, 12a, and 14a were prepared in DMSO. Working solutions were prepared from the stock solutions in complete malaria culture medium (CMCM), which consists of RPMI 1640 supplemented with 25 mM HEPES, 2.4 mM L-glutamine, 50 μg/ml gentamicin, 0.5% w/v Albumax, 11 mM glucose, 1.47 mM hypoxanthine, and 37.3 mM NaHCO3. For each measurement, 5 μl of the culture (approximately 800,000 cells) were stained with the DNA-specific dye SYBR green I. After 20 min of incubation in the dark, the stained sample was analyzed by flow cytometry. Approximately 100,000 events were analyzed in each flow cytometry measurement. Two independent experiments were performed, and all samples were analyzed in triplicate.

[10] = Human immunodeficiency virus 1, TZM-bl, read-out: IC50 HIV-1, TZM-bl cells, 48 h
[11] = Human immunodeficiency virus 1, TZM-bl
[12] = read-out: IC50 HIV-1, TZM-bl cells

| SMILES | IC50 (HIV-1 SG3.1 [1]) | IC50 (P. berghei hepatic stage [3]) [µM] | IC50 [4] [µM] | CC50 [5] [µM] | IC50 (HIV-1 SG3.1 [6]; [10]) [µM] | IC90 (HIV-1 SG3.1 [6]; [11]) [µM] | inhibition at 25 µg/mL (HIV-1 SG3.1 [6]; [11]) [%] | IC50 (HIV-2 03PTHCC19 [7]) [µM] | IC90 (HIV-2 03PTHCC19 [7]) [µM] | inhibition at 25 µg/mL (HIV-2 03PTHCC19 [7]) [%] | inhibition at 1 µM (P. berghei hepatic stage [8]) [%] | IC50 (P. berghei hepatic stage [8]) [µM] | IC50 [9] [µM] | melting point [°C] | IC50 (HIV-1 SG3.1 [6]; [12]) [µM] | further results |
| --- | --- | --- | --- | --- | --- | --- | --- | --- | --- | --- | --- | --- | --- | --- | --- | --- |
| COC(=O)C1C(C(=O)OCc2ccccc2)=CCC12C(=O)N1C(C(=O)OC(c3ccccc3)c3ccccc3)C(C)(C)SC12 (centres unmarked) [BSS-722A] | 0.65 µM | < 5 | – | – | – | – | – | – | – | – | – | – | – | – | – | IC50 (HIV-2 03PTHCC19 [2]): 0.51 µM |
| CC1(C)SC2N(C(=O)C23CC=C(C(=O)OCc2ccccc2)C3C(=O)c2ccccc2)C1C(=O)OC(c1ccccc1)c1ccccc1 (centres unmarked) [BSS-730A] | 0.014 µM | 0.55 ± 0.14 | 0.43 ± 0.04 | – | – | – | – | – | – | – | – | – | – | – | – | CC50 (TZM-bl cells): 76.8 µM; MPI (%) 25 μg/mL (HIV-1 SG3.1 [1]; HIV-1, 25 μg/mL, lead molecule): 99%; Therapeutic index (CC50/IC50) (HIV-1 SG3.1 [1]; HIV-1, lead molecule): 5488.57; IC90 (HIV-1 SG3.1 [1]; lead molecule): 0.025 µM; MPI (%) 25 μg/mL (HIV-2 03PTHCC19 [2]; HIV-2, 25 μg/mL, lead molecule): 99%; Therapeutic index (CC50/IC50) (HIV-2 03PTHCC19 [2]; HIV-2, lead molecule): 9605.00; IC90 (HIV-2 03PTHCC19 [2]; lead molecule): 0.064 µM; IC50 (HIV-2 03PTHCC19 [2]): 0.008 µM; HIV antiprotease activity (in words) (HIV protease): no HIV antiprotease activity |
| COC(=O)C1=CCC2(C(=O)N3C(C(=O)OC(c4ccccc4)c4ccccc4)C(C)(C)SC32)C1C(=O)Oc1ccccc1 (centres unmarked) [Compound 4] | – | 2.29 | 1.26 | – | – | – | – | – | – | – | – | – | – | – | – | – |
| CCOC(=O)C1=CCC2(C(=O)N3C(C(=O)OC(c4ccccc4)c4ccccc4)C(C)(C)SC32)C1C(=O)c1ccccc1 (centres unmarked) [Compound 5] | 0.305 µM and < 0.3 µM | 1.92 | 0.844 | – | – | – | – | – | – | – | – | – | – | – | – | – |
| COc1ccc(COC(=O)C2=CCC3(C(=O)N4C(C(=O)OC(c5ccccc5)c5ccccc5)C(C)(C)SC43)C2C(=O)c2ccccc2)cc1 (centres unmarked) [Compound 9i, (1’R,2’R)-Benzhydryl spiro[(2-benzoyl-3-(4-methoxybenzyloxycarbonyl)cyclopent-3-ene)-1’,6-penicillanate]] | – | – | – | 35.8 | 0.015 | 0.02 | 100 | 0.111 | 0.35 | 100 | < 50 | 0.285 ± 0.044 | 0.336 ± 0.067 | 65.3 to 67.4 | – | – |
| CC1(C)SC2N(C(=O)C23CC=C(C(=O)OCc2ccccc2)C3C(=O)c2ccc(F)cc2)C1C(=O)OC(c1ccccc1)c1ccccc1 (stereo not drawn) [Compound 12a, (1′R,2′R)-benzhydryl spiro[(2-(4-fluorobenzoyl)-3-benzyloxycarbonylcyclopent-3-ene)-1′,6-penicillanate]] | – | – | – | 58.1 | 0.019 | 0.054 | 93 | 0.011 | 0.055 | 100 | < 50 | 0.924 ± 0.027 | 0.56 ± 0.126 | 64.5 to 66.5 | – | – |
| COc1ccc(COC(=O)C2=CCC3(C(=O)N4C(C(=O)OC(c5ccccc5)c5ccccc5)C(C)(C)SC43)C2C(=O)c2ccc(F)cc2)cc1 (stereo not drawn) [Compound 14a, (1′R,2′R)-benzhydryl spiro[(2-(4-fluorobenzoyl)-3-(4-methoxybenzyloxycarbonyl)cyclopent-3-ene)-1′,6-penicillanate]] | – | – | – | 75.1 | < 0.02 | 0.048 | 100 | 0.013 | 0.051 | 100 | < 50 | 0.75 ± 0.107 | 0.292 ± 0.062 | 72.9 to 74.9 | 0.012 | – |
| CC1(C)SC2N(C(=O)C23CC=C(C(=O)OCC=Cc2ccccc2)C3C(=O)c2ccc(F)cc2)C1C(=O)OC(c1ccccc1)c1ccccc1 (centres unmarked) [Compound 14c, (1’R,2’R)-Benzhydryl spiro[(2-(4-fluorobenzoyl)-3-cinnamyloxycarbonylcyclopent-3-ene)-1’,6-penicillanate]] | – | – | – | 77.6 | < 0.02 | 0.018 | 100 | 0.039 | 0.103 | 100 | – | 1 to 10 | – | 76.5 to 78.5 | 0.015 | – |
| COc1ccc(COC(=O)C2=CCC3(C(=O)N4C(C(=O)OC(c5ccccc5)c5ccccc5)C(C)(C)SC43)C2C(=O)c2ccc(Cl)cc2)cc1 (centres unmarked) [Compound 14d, (1’R,2’R)-Benzhydryl spiro[(2-(4-chlorobenzoyl)-3-(4-methoxybenzyloxycarbonyl)cyclopent-3-ene)-1’,6-penicillanate]] | – | – | – | 134 | < 0.02 | 0.019 | 100 | 0.065 | 0.123 | 100 | – | 2 ± 0.458 | – | 76.1 to 78.1 | 0.015 | – |
| COc1ccc(COC(=O)C2=CCC3(C(=O)N4C(C(=O)OC(c5ccccc5)c5ccccc5)C(C)(C)SC43)C2C(=O)c2ccc(Br)cc2)cc1 (centres unmarked) [Compound 14g, (1’R,2’R)-Benzhydryl spiro[(2-(4-bromobenzoyl)-3-(4-methoxybenzyloxycarbonyl)cyclopent-3-ene)-1’,6-penicillanate]] | – | – | – | 101 | 0.03 | 0.099 | 100 | 0.087 | 0.137 | 100 | – | 2.59 ± 0.219 | – | 82.6 to 84.6 | – | – |
